Measured values taken from US20150218212A1, “FLUORINATED EPOXYKETONE-BASED TETRAPEPTIDE COMPOUNDS AND USES THEREOF AS PROTEASOME INHIBITORS” (FLUORINOV PHARMA INC., priority 2012, published 2015).

Columns and labels:
Format in all cases: cell-based, human
[1] = test system: K-562; experiment: NCI screening panel, K-562 (Leukemia)
Description: (§1) Representative compounds of Formula I were screened using the National Cancer Institute (NCI) screening panel, which consists of a panel of human tumor cell lines, representing leukemia, melanoma, and cancers of the lung, colon, ovary, breast, prostate and renal system.
(§2) After 24 h, two plates of each cell line are fixed in situ with TCA, to represent a measurement of the cell population for each cell line at the time of drug addition (Tz). Experimental drugs are solubilised in dimethyl sulfoxide at 400-fold the desired final maximum test concentration and stored frozen prior to use. At the time of drug addition, an aliquot of frozen concentrate is thawed and diluted to twice the desired final maximum test concentration with complete medium containing 50 μg/mL gentamicin. Additional four, 10-fold or ½ log serial dilutions are made to provide a total of five drug concentrations plus control. Aliquots of 100 μl of these different drug dilutions are added to the appropriate microtiter wells already containing 100 μl of medium, resulting in the required final drug concentrations.
(§3) Following drug addition, the plates are incubated for an additional 48 h at 37° C., 5% CO2, 95% air, and 100% relative humidity. For adherent cells, the assay is terminated by the addition of cold TCA (trichloroacetic acid). Cells are fixed in situ by the gentle addition of 50 μl of cold 50% (w/v) TCA (final concentration, 10% TCA) and incubated for 60 minutes at 4° C. The supernatant is discarded, and the plates are washed five times with tap water and air dried. Sulforhodamine B (SRB) solution (100 μl) at 0.4% (w/v) in 1% acetic acid is added to each well, and plates are incubated for 10 minutes at room temperature. After staining, unbound dye is removed by washing five times with 1% acetic acid and the plates are air dried. Bound stain is subsequently solubilised with 10 mM trizma base, and the absorbance is read on an automated plate reader at a wavelength of 515 nm. For suspension cells, the methodology is the same except that the assay is terminated by fixing settled cells at the bottom of the wells by gently adding 50 μl of 80% TCA (final concentration, 16% TCA). Using the seven absorbance measurements [time zero, (Tz), control growth, (C), and test growth in the presence of drug at the five concentration levels (Ti)], the percentage growth is calculated at each of the drug concentrations levels. Percentage growth inhibition is calculated as: [(Ti−Tz)/(C−Tz)]×100 for concentrations for which Ti>/=Tz and [(Ti−Tz)/Tz]×100 for concentrations for which Ti<Tz.
(§4) Three dose response parameters are calculated for each experimental agent. Growth inhibition of 50% (GI50) is calculated from [(Ti−Tz)/(C−Tz)]×100=50, which is the drug concentration resulting in a 50% reduction in the net protein increase (as measured by SRB staining) in control cells during the drug incubation. The drug concentration resulting in total growth inhibition (TGI) is calculated from Ti=Tz. The LC50 (concentration of drug resulting in a 50% reduction in the measured protein at the end of the drug treatment as compared to that at the beginning) indicating a net loss of cells following treatment is calculated from [(Ti−Tz)/Tz]×100=−50. Values are calculated for each of these three parameters if the level of activity is reached. However, if the effect is not reached or is exceeded, the value for that parameter is expressed as greater or less than the maximum or minimum concentration tested.

[2] = test system: NCI-H226; experiment: NCI screening panel, NCI-H226 (Non-Small Cell Lung Cancer)
Description: as §1, §2, §3, §4

[3] = test system: KM12; experiment: NCI screening panel, KM12 (Colon Cancer)
Description: as §1, §2, §3, §4

[4] = test system: SNB-75; experiment: NCI screening panel, SNB-75 (CNS Cancer)
Description: as §1, §2, §3, §4

[5] = test system: MDA-MB-435; experiment: NCI screening panel, MDA-MB-435 (Melanoma)
Description: as §1, §2, §3, §4

[6] = test system: SK-MEL-5; experiment: NCI screening panel, SK-MEL-5 (Melanoma)
Description: as §1, §2, §3, §4

[7] = test system: OVCAR-4; experiment: NCI screening panel, OVCAR-4 (Ovarian Cancer)
Description: as §1, §2, §3, §4

[8] = test system: OVCAR-5; experiment: NCI screening panel, OVCAR-5 (Ovarian Cancer)
Description: as §1, §2, §3, §4

[9] = test system: NCI/ADR-RES; experiment: NCI screening panel, NCI/ADR-RES (Ovarian Cancer)
Description: as §1, §2, §3, §4

[10] = test system: ACHN; experiment: NCI screening panel, ACHN (Renal Cancer)
Description: as §1, §2, §3, §4

[11] = test system: UO-31; experiment: NCI screening panel, UO-31 (Renal Cancer)
Description: as §1, §2, §3, §4

[12] = test system: DU-145; experiment: NCI screening panel, DU-145 (Prostate Cancer)
Description: as §1, §2, §3, §4

[13] = test system: HS 578T; experiment: NCI screening panel, HS 578T (Breast Cancer)
Description: as §1, §2, §3, §4

SMILES | Log10GI50 [1] | Log10LC50 [1] | Log10TGI50 [1] | Log10GI50 [2] | Log10LC50 [2] | Log10TGI50 [2] | Log10GI50 [3] | Log10LC50 [3] | Log10TGI50 [3] | Log10GI50 [4] | Log10LC50 [4] | Log10TGI50 [4] | Log10GI50 [5] | Log10LC50 [5] | Log10TGI50 [5] | Log10GI50 [6] | Log10LC50 [6] | Log10TGI50 [6] | Log10GI50 [7] | Log10TGI50 [7] | also measured
CC(C)C[C@H](NC(=O)[C@H](Cc1ccccc1)NC(=O)[C@H](COC(F)F)NC(=O)[C@H](COC(F)F)NC(=O)CN1CCOCC1)C(=O)[C@@]1(C)CO1 [Example 11, (2S)-2-[[(2S)-3-(difluoromethoxy)-2-[[(2S)-3-(difluoromethoxy)-2-[(2-morpholinoacetyl)-amino]propanoyl]amino]propanoyl]amino]-N-[(1S)-3-methyl-1-[(2R)-2-methyloxirane-2-carbonyl]butyl]-3-phenyl-propanamide] | −7.36 | >−4.00 | >−4.00 | −7.77 | −7.11 | −7.44 | −7.73 | −7.07 | −7.40 | −7.62 | >−4.00 | −7.15 | −7.90 | −7.24 | −7.57 | −7.45 | −6.23 | −6.83 | −7.68 | −5.69 | Log10LC50 [7]: >−4.00; Log10GI50 [8]: −7.37; Log10LC50 [8]: >−4.00; Log10TGI50 [8]: −6.46; Log10GI50 [9]: −5.16; Log10LC50 [9]: >−4.00; Log10TGI50 [9]: >−4.00; Log10GI50 [10]: −6.40; Log10LC50 [10]: >−4.00; Log10TGI50 [10]: >−4.00; Log10GI50 [11]: −6.17; Log10LC50 [11]: −4.24; Log10TGI50 [11]: −5.47; Log10GI50 [12]: −7.31; Log10LC50 [12]: >−4.00; Log10TGI50 [12]: −5.94; Log10GI50 [13]: −7.70; Log10LC50 [13]: >−4.00; Log10TGI50 [13]: −6.97
CC(C)C[C@H](NC(=O)[C@H](COC(F)F)NC(=O)[C@H](COC(F)F)NC(=O)[C@H](CCc1ccccc1)NC(=O)CN1CCOCC1)C(=O)[C@@]1(C)CO1 [Example 7, (2S)-N-[(1S)-1-(difluoromethoxymethyl)-2-[[(1S)-1-(difluoromethoxymethyl)-2-[[(1S)-3-methyl-1-[(2R)-2-methyloxirane-2-carbo-nyl]butyl]amino]-2-oxo-ethyl]amino]-2-oxo-ethyl]-2-[(2-morpholinoacetyl)amino]-4-phenyl-butanamide] | −7.37 | >−4.00 | >−4.00 | −7.75 | −7.08 | −7.41 | −7.78 | −7.11 | −7.45 | −7.65 | −4.01 | −7.16 | −7.83 | −7.12 | −7.47 | −7.55 | −6.35 | −6.99 | −7.69 | >−4.00 | Log10LC50 [7]: >−4.00; Log10GI50 [8]: −7.31; Log10LC50 [8]: >−4.00; Log10TGI50 [8]: −6.14; Log10GI50 [9]: −5.16; Log10LC50 [9]: >−4.00; Log10TGI50 [9]: >−4.00; Log10GI50 [10]: −6.31; Log10LC50 [10]: >−4.00; Log10TGI50 [10]: >−4.00; Log10GI50 [11]: −5.97; Log10LC50 [11]: −4.70; Log10TGI50 [11]: −5.45; Log10GI50 [12]: −7.42; Log10LC50 [12]: >−4.00; Log10TGI50 [12]: −4.75; Log10GI50 [13]: −7.70; Log10LC50 [13]: >−4.00; Log10TGI50 [13]: −6.05
CC(C)C[C@H](NC(=O)[C@H](COC(F)F)NC(=O)CN1CCOCC1)C(=O)N[C@@H](Cc1ccccc1)C(=O)N[C@@H](CC(C)C)C(=O)[C@@]1(C)CO1 [Example 2, (2S)-N-[(1S)-1-benzyl-2-[[(1S)-3-methyl-1-[(2R)-2-methyloxirane-2-carbonyl]butyl]-amino]-2-oxo-ethyl]-2-[[(2S)-3-(difluoromethoxy)-2-[(2-morpholinoacetyl)amino]propanoyl]amino]-4-methyl-pentanamide] | −7.49 | >−4.00 | >−4.00 | −7.83 | −7.12 | −7.48 | −7.85 | −7.01 | −7.43 | −7.75 | −5.91 | −7.30 | −7.99 | −7.14 | −7.56 | −7.53 | −6.23 | −6.94 | −7.84 | −6.49 | Log10LC50 [7]: >−4.00; Log10GI50 [8]: −7.47; Log10LC50 [8]: −4.54; Log10TGI50 [8]: −6.70; Log10GI50 [9]: −5.80; Log10LC50 [9]: >−4.00; Log10TGI50 [9]: >−4.00; Log10GI50 [10]: −6.71; Log10LC50 [10]: >−4.00; Log10TGI50 [10]: >−4.00; Log10GI50 [11]: −6.49; Log10LC50 [11]: −5.01; Log10TGI50 [11]: −5.80; Log10GI50 [12]: −7.34; Log10LC50 [12]: >−4.00; Log10TGI50 [12]: −5.00; Log10GI50 [13]: −7.71; Log10TGI50 [13]: >−4.00
CC(C)C[C@H](NC(=O)[C@H](COC(F)F)NC(=O)CN1CCOCC1)C(=O)N[C@@H](Cc1ccccc1)C(=O)N[C@@H](Cc1ccccc1)C(=O)[C@@]1(C)CO1 [Example 3, (2S)-N-[(1S)-1-benzyl-2-[[(1S)-1-benzyl-2-[(2R)-2-methyloxiran-2-yl]-2-oxo-ethyl]amino]-2-oxo-ethyl]-2-[[(2S)-3-(difluoromethoxy)-2-[(2-morpholinoacetyl)-amino]propanoyl]amino]-4-methyl-pentan-amide] | −7.77 | >−4.00 | >−4.00 | <−8.00 | −7.24 | −7.92 | <−8.00 | −7.16 | −7.74 | −7.66 | −4.61 | −7.11 | <−8.00 | −7.34 | −7.90 | −7.71 | −6.43 | −7.19 | −7.88 | >−4.00 | Log10GI50 [8]: −7.42; Log10LC50 [8]: >−4.00; Log10TGI50 [8]: −5.86; Log10GI50 [9]: −5.86; Log10LC50 [9]: >−4.00; Log10TGI50 [9]: >−4.00; Log10GI50 [10]: −7.13; Log10LC50 [10]: >−4.00; Log10TGI50 [10]: >−4.00; Log10GI50 [11]: −6.65; Log10LC50 [11]: −5.08; Log10TGI50 [11]: −5.91; Log10GI50 [12]: <−8.00; Log10LC50 [12]: −4.48; Log10TGI50 [12]: −5.79; Log10GI50 [13]: <−8.00; Log10LC50 [13]: >−4.00; Log10TGI50 [13]: −7.01
